Results on four compounds are retold here after paper PMC9719525, “Design of MMP-1 inhibitors via SAR transfer and experimental validation” (Scientific Reports, 2022).

The target in test [1] is T1, matrix metalloproteinase 1 (MMP-1) (Homo sapiens, UniProt P03956).
T1 construct: gene MMP1
T1 sequence (P03956 100-469): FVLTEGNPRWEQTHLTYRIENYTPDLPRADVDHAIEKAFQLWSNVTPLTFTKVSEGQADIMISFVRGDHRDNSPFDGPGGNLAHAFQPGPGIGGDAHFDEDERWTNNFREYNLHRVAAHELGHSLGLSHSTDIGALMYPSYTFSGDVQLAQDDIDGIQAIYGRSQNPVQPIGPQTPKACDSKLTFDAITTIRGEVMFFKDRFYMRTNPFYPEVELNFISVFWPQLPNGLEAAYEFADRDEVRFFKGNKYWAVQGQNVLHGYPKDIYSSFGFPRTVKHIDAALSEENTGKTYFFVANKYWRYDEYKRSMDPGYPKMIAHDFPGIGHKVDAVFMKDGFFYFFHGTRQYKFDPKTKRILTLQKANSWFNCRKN
Nature of the test: colorimetric MMP-1 enzyme assay (ENZ BML-AK404-0001 kit, A412nm). It is filed as biochemical.

Test [2] has as its target T1, matrix metalloproteinase 1 (MMP-1). Nature of the test: colorimetric MMP-1 enzyme assay; compound previously reported (ref […]), resynthesized here. To be noted: cited from earlier work. It is filed as biochemical.

In turn, `COc1ccc([C@]2(C)CCN([C@H](C)C(=O)NO)C2=O)cc1` [compound 5, (R)-N-hydroxy-2-((S)-3-(4-methoxyphenyl)-3-methyl-2-oxopyrrolidin-1-yl)propenamide] showed a half-maximal inhibitory concentration (IC50) in test [1] of 0.36 ± 0.04 µM.

In the case of `C[C@H](C(=O)NO)N1CC[C@@](C)(c2ccc(C(F)(F)F)cc2)C1=O` [compound 4], the 50% inhibitory concentration (IC50) in test [2] is 0.12 ± 0.01 µM.

Regarding `Cc1ccc([C@]2(C)CCN([C@H](C)C(=O)NO)C2=O)cc1` [compound 7, (R)-N-hydroxy-2-((S)-3-(p-tolyl)-3-methyl-2-oxopyrrolidin-1-yl)propenamide], the IC50 in test [1] (read-out: IC50 (μM)^a) amounted to 0.5 ± 0.023 µM. Turning to `C[C@H](C(=O)NO)N1CC[C@@](C)(c2ccc(Cl)cc2)C1=O` [compound 6, (R)-N-hydroxy-2-((S)-3-(4-chlorophenyl)-3-methyl-2-oxopyrrolidin-1-yl)propenamide], in test [1] (read-out: IC50 (μM)^a), the IC50 is 0.034 ± 0.026 µM.
